{"source": "patent US8426394B2", "about": "“Progesterone antagonists such as CDB-4124 in the treatment of endometriosis, uterine fibroids, dysmenorrhea, breast cancer, etc” (Repros Therapeutics Inc., priority 2008, dated 2013)", "key": {"[1]": {"system": "progesterone-induced endometrial proliferation in the rabbit uterus", "assay": "anti-McGinty and anti-Clauberg assays (biological activity in the rabbit uterus)", "format": "in vivo", "settings": "in comparison to RU 486 and CDB-2914", "text": "Also given in Table 1 are the relative biological activities of the same compounds in the rabbit uterus by the anti-McGinty and anti-Clauberg assays. Compound CDB-2914 (listed at the end of the Table) was used as the control or reference compound (rabbit Biological Activity=1.00) for these experiments because results of experiments using CDB-2914 have been published before (Hild-Petito et al., 1996; Passaro et al., 1997; Reel et al., 1998; Lamer et al., 2000). For the anti-McGinty test, immature female rabbits received a subcutaneous injection of 5 μg estradiol in 10% ethanol/sesame oil daily for 6 consecutive days. On day 7, animals underwent sterile abdominal surgery to ligate a 3-4 cm segment of both uterine horns. The test compound in appropriate solvent was injected intraluminally into the ligated segment of one uterine horn and vehicle alone into the other. […] Five micron sections stained with hematoxylin and cosin were evaluated microscopically for the degree of endometrial glandular proliferation. The percent inhibition of endometrial proliferation for each rabbit was calculated and the mean of the group of five animals recorded. […] Five micron sections stained with hematoxylin and eosin were evaluated microscopically for the degree of endometrial glandular proliferation. […]"}, "[2]": {"system": "pre-menopausal adult women diagnosed with endometriosis", "assay": "Six month study of Proellex (CDB-4124) in the treatment of endometriosis", "format": "in vivo, human", "description": "Pain reduction also occurred more rapidly than with the active control, Lucrin®. The response of pain to treatment in this study was analyzed in two ways. Patients in the study maintained daily pain diaries to record the severity and frequency of pain. In addition, at each office visit, patients filled out endometriosis symptom surveys that included a questionnaire that evaluated intensity of pain on a bad day on a scale of 0-10 with 10 being the greatest intensity. […] There appeared to be a dose dependent effect on pain reduction. […] This decrease in duration of pain was statistically better (p=0.0012) than the 117.8 (74%; standard deviation 51.4 days) pain free days achieved with Lucrin®. […] Patients on CDB-4124 12.5 mg and 25 mg doses had 115.9 (66%; standard deviation 69.2 days) and 133.6 (75%; standard deviation 27.4 days) pain free days, respectively. […] The 25 mg and 12.5 mg doses of CDB-4124 were not statistically different from Lucrin®. […] The intensity of pain was assessed by the question: “On a […], with 0 being no pain and 10 being extreme pain, how intense was your pain on a bad day?” The mean scores for intensity of pain at baseline were 6.3 for the CDB-4124 groups and 6.1 for the Lucrin® group. […] At month three all four active treatment groups had statistically significant reduction in pain compared with baseline, with the following scores: 3.7 (p=0.03) for 12.5 mg CDB-4124, 3.2 (p=0.03) for 25 mg CDB-4124, 1.6 (p=0.015) for 50 mg CDB-4124 and 1.5 (p=0.016) for Lucrin®. These dose related reductions continued until month six when the values for pain intensity were 2.0 (p=0.008), 2.8 (p=0.023), 0.6 (p=0.004) and 0.7 (p=0.016), respectively. Two months after stopping treatment pain returned and was of similar intensity in all four treatment groups."}, "[3]": {"system": "women with uterine fibroids", "assay": "Three month study in women with uterine fibroids", "format": "in vivo, human", "settings": "12.5 mg or 25 mg daily for three months, begun at day 5 of cycle", "description": "In a separate study, women with uterine fibroids were administered daily doses of 12.5 mg, 25 mg or 50 mg CDB-4124 for a three month period, beginning at day 5 of each woman's menstrual cycle."}, "[4]": {"assay": "Serum corticosterone in rats", "settings": "progesterone, CDB-4124 and RU-486 groups compared"}}}
{"compound": "COCC(=O)[C@@]1(OC(C)=O)CC[C@H]2[C@@H]3CCC4=CC(=O)CCC4=C3[C@@H](c3ccc(N(C)C)cc3)C[C@@]21C", "note": "[CDB-4124, 21-methoxy-17α-acetoxy-11β-(4 N,N-dimethylaminophenyl)-19-norpregna-4,9-diene-3,20-dione]", "values": [{"measurement": "antiprogestin activity in the rabbit uterus", "setting": "[1]", "result": "strong"}, {"measurement": "intensity of pain on a bad day (score)", "setting": "[2]; month six, 12.5 mg CDB-4124, scale 0-10, p=0.008", "result": 2.0}, {"measurement": "intensity of pain on a bad day (score)", "setting": "[2]; month six, 25 mg CDB-4124, scale 0-10, p=0.023", "result": 2.8}, {"measurement": "intensity of pain on a bad day (score)", "setting": "[2]; month six, 50 mg CDB-4124, scale 0-10, p=0.004", "result": 0.6}, {"measurement": "intensity of pain on a bad day (score)", "setting": "[2]; month three, 12.5 mg CDB-4124, scale 0-10, baseline 6.3, p=0.03", "result": 3.7}, {"measurement": "intensity of pain on a bad day (score)", "setting": "[2]; month three, 25 mg CDB-4124, scale 0-10, baseline 6.3, p=0.03", "result": 3.2}, {"measurement": "intensity of pain on a bad day (score)", "setting": "[2]; month three, 50 mg CDB-4124, scale 0-10, baseline 6.3, p=0.015", "result": 1.6}, {"measurement": "mean endometrial thickness", "setting": "[3]", "result": "less than 20 mm"}, {"measurement": "subjects with a significant bleeding episode", "setting": "[3]", "result": "None"}, {"measurement": "differences in serum corticosterone between treatment groups", "setting": "[4]", "result": "No differences"}]}
